Assays:
[1] = system: neuropathic pain model induced by L5/L6 spinal nerve ligation (tactile allodynia); details: rat, in vivo, po
Protocol: Antineuropathic effect of a combination of pregabalin and alpha lipoic acid through the neuropathic pain model induced by L5/L6 spinal nerve ligation in rat was determined.
Wistar female rats with a body weight of 120-140 g were used for all experiments. Animals were kept under temperature controlled conditions (22° C.) and water and food were given ad-libitum in experimentation rooms.
Both pregabalin and alpha lipoic acid were suspended in a 0.5% carboxymethylcellulose isotonic saline solution. Individual drugs or in combination were prepared and administered just before starting the experiment.
Rats were prepared according to the method described by Kim S H, Chung J M. 1992. […]
Tactile allodynia was determined according to the previously described method by Chaplan S R, Bach F W, Pogrel J W, Chung J M, Yaksh T L. 1994. […] Paw withdrawal mechanical threshold was measured immediately after and a systemic administration of drugs was carried out. Later, paw withdrawal mechanical threshold was measured at 0.5, 1, 2, 3, 4, 5, 6, 7 and 8 hours. […]
Graphs of 50% withdrawal threshold in grams (g) in function of time (minutes) were prepared from data obtained. Area under curve was determined from these graphs through trapezoidal method and % of maximum possible effect (% MEP) was calculated using the following formula: % MEP=(Drug AUC−Neuropathic AUC)/(Sham AUC−Neuropathic AUC)×100 […]

[2] = Safety/tolerability observations in treated rats; details: 30 mg/Kg dose
Protocol: Wistar female rats with a body weight of 120-140 g were used for all experiments. Animals were kept under temperature controlled conditions (22° C.) and water and food were given ad-libitum in experimentation rooms. Experiments were carried out according to the guidelines on ethical issues on experimental pain research in animals (Zimmermann M. 1983. Ethical guidelines for investigations of experimental pain in conscious animals. Pain. 16:109-110).

Compound: O=C(O)CCCCC1CCSS1 (stereo not drawn) [alpha lipoic acid]
- ED50 [1]: 57.5 ± 5.59 mg/kg

Compound: CC(C)C[C@H](CN)CC(=O)O [pregabalin]
- adverse signs observed [2]: sedation and motor discoordination
- ED50 [1]: 2.45 ± 0.23 mg/kg
